Results on 43 molecules are retold here after patent US20070276011A1, “Plasminogen Activator Inhibitor-1 Inhibitor” (priority 2003, published 2007).

Each structure is given as a SMILES string.

The target in the first assay is recombinant human PAI-1 (Homo sapiens, UniProt P05121). The experiment in a line: PAI-1 inhibitory activity, Test Method A (tPA fluorogenic substrate, Tris buffer pH8.0, 37 C). Format: biochemical. Conditions: 25 μM test compound; Test Method A. The protocol: To this solution, 50 μL solution of 400 μM fluogenic substrate for tPA (Pyr-Gly-Arg-MCA, Peptide Institute, Inc.) adjusted with the same buffer was added, and reacted for 30 minutes at 37° C. The reaction was stopped by adding 50 μL of 2% acetic acid. Fluorescence was measured at the excitation wavelength=360 nm, emission wavelength=460 or 465 nm using a microplate reader (SPECTRAFLUOR or GENios) by TECAN. The fluorescence intensities in the presence of the PAI-1 as the control (DMSO) or in the absence of the PAI-1 (tPA alone) were taken as 100% and 0% of PAI-1 activities, respectively, and inhibitory ratios of PAI-1 activities in the presence of the test compound were obtained.
recombinant human PAI-1, sequence (P05121 24-402): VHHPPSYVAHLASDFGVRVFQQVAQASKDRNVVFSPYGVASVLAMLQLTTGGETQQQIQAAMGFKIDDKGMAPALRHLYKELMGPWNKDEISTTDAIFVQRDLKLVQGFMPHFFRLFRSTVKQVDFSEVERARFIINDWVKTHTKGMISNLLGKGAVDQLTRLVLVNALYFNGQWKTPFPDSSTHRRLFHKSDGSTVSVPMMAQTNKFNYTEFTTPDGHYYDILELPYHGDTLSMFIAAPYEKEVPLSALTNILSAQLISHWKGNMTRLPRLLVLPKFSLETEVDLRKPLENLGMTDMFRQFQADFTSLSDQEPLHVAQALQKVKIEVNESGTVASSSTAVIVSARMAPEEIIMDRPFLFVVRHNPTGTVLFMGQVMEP
<Composition of the Tris Buffer (pH8.0)>
Take `O=C(Nc1cc(C(F)(F)F)ccc1F)c1cc(C=C2SC(=O)N(Cc3ccc(Cl)c(Cl)c3)C2=O)ccc1O` [compound 442]: the “Inhibitory Ratio at 25 μM (%)” value came to 58%.

Turning to `O=C1SC(=Cc2cc([O-])c([O-])c(O)c2)C(=O)N1Cc1ccc(Cl)c(Cl)c1.[Na+].[Na+]` [compound 338], the “Inhibitory Ratio at 25 μM (%)” value worked out at 85%.

Take `O=C(CCc1ccccc1)Nc1ccc(CN2C(=O)SC(=Cc3cccc(O)c3O)C2=O)cc1` [compound 314, 5-(2,3-Dihydroxybenzylidene)-3-[4-(3-phenylpropionylamino)benzyl]-thiazolidine-2,4-dione]: the “Inhibitory Ratio at 25 μM (%)” value was above 99%.

For the molecule `CC(C)C1=NN(c2cc(Cl)ccc2Cl)C(=O)C1=Cc1cc(O)c(O)cc1O` [compound 502, 4-(2,4,5-Trihydroxybenzylidene)-1-(2,5-dichlorophenyl)-3-isopropyl-2-pyrazolin-5-one], the “Inhibitory Ratio at 25 μM (%)” value is 66%.

As for `COCC1=NN(c2cc(Cl)cc(Cl)c2)C(=O)C1=Cc1ccc(Oc2ccccc2)cc1` [compound 527], the “Inhibitory Ratio at 25 μM (%)” value was found to be 59%.

For `COCC1=NN(c2cc(Cl)cc(Cl)c2)C(=O)C1=Cc1cc(Br)ccc1O` [compound 521, 4-(2-Hydroxy-5-bromobenzylidene)-1-(3,5-dichlorophenyl)-3-methoxymethyl-2-pyrazolin-5-one], the “Inhibitory Ratio at 25 μM (%)” value is recorded as above 99%.

On to `COc1ccc(NC(=O)c2cc(C=C3SC(=O)N(Cc4cc(Cl)cc(Cl)c4)C3=O)ccc2O)cc1OC` [compound 395, 5-[4-Hydroxy-3-(3,4-dimethoxyphenylcarbamoyl)benzylidene]-3-(3,5-dichlorobenzyl)thiazolidine-2,4-dione], for which the “Inhibitory Ratio at 25 μM (%)” value is given as 88%.

In the case of `COc1cc(C=C2SC(=O)N(Cc3ccc(Cl)c(Cl)c3)C2=O)cc(C(=O)Nc2ccccc2)c1O` [compound 440], the “Inhibitory Ratio at 25 μM (%)” value came to 82%.

On to `COc1ccc(NC(=O)c2cc(C=C3SC(=O)N(Cc4ccc(Cl)c(Cl)c4)C3=O)ccc2O)cc1` [compound 353, 5-[4-hydroxy-3-(4-methoxyphenylcarbamoyl)benzylidene]-3-(3,4-dichlorobenzyl)thiazolidine-2,4-dione], for which the “Inhibitory Ratio at 25 μM (%)” value is 66%.

For `CC(C)c1ccc(NC(=O)c2cc(C=C3SC(=O)N(Cc4ccc(Cl)c(Cl)c4)C3=O)ccc2O)c(Br)c1` [compound 472], the “Inhibitory Ratio at 25 μM (%)” value was found to be 94%.

Regarding `O=C(Nc1cc(C=C2SC(=O)N(Cc3ccc(Cl)c(Cl)c3)C2=O)ccc1O)c1ccc(OC(F)(F)F)cc1` [compound 365], the “Inhibitory Ratio at 25 μM (%)” value is recorded as above 99%.

`O=C1SC(=Cc2ccc(F)c(O)c2)C(=O)N1Cc1ccc(Cl)c(Cl)c1` [compound 326]: the “Inhibitory Ratio at 25 μM (%)” value was 66%.

In the case of `O=C1C(=Cc2cc(Br)ccc2O)C(c2ccc(O)cc2)=NN1c1ccc(Cl)cc1` [compound 520, 4-(2-Hydroxy-5-bromobenzylidene)-1-(4-chlorophenyl)-3-(4-hydroxyphenyl)-2-pyrazolin-5-one], the “Inhibitory Ratio at 25 μM (%)” value is listed as above 99%.

With `CCOC(=O)CCC1=NN(c2ccccc2)C(=O)C1=Cc1ccc2c(c1)OCO2` [compound 512, 4-(3,4-Methylenedioxybenzylidene)-1-phenyl-3-[2-(ethoxycarbonyl)ethyl]-2-pyrazolin-5-one], the “Inhibitory Ratio at 25 μM (%)” value is given as 52%.

With `CC(C)C1=NN(Cc2ccc(Cl)c(Cl)c2)C(=O)C1=Cc1cc(O)c(O)cc1O.N=C(N)NCCC[C@H](N)C(=O)O.N=C(N)NCCC[C@H](N)C(=O)O` [compound 554, di(L-(+)-arginine) salt of 4-(2,4,5-trihydroxybenzylidene)-1-(3,4-dichlorobenzyl)-3-isopropyl-2-pyrazolin-5-one], the “Inhibitory Ratio at 25 μM (%)” value is above 99%.

As for `CC(C)C1=NN(c2cc(Cl)cc(Cl)c2)C(=O)C1=Cc1cc(C=Cc2ccccc2)ccc1O` [compound 525], the “Inhibitory Ratio at 25 μM (%)” value is given as above 99%.

`O=C(Nc1ccc(O)nc1)c1cc(C=C2SC(=O)N(Cc3ccc(Cl)c(Cl)c3)C2=O)ccc1O` [compound 408]: the “Inhibitory Ratio at 25 μM (%)” value was above 99%.

In the case of `CC1=NN(c2ccc([N+](=O)[O-])cc2)C(=O)C1=Cc1cc(C=Cc2ccccc2)ccc1O` [compound 533], the “Inhibitory Ratio at 25 μM (%)” value is reported as above 99%.

For the molecule `N=C(N)NCCC[C@H](N)C(=O)O.N=C(N)NCCC[C@H](N)C(=O)O.O=C1SC(=Cc2ccc(O)c(O)c2)C(=O)N1Cc1ccc(Cl)cc1Cl` [compound 335, di(L-(+)-arginine) salt of 5-(3,4-dihydroxybenzylidene)-3-(2,4-dichlorobenzyl)thiazolidine-2,4-dione], the “Inhibitory Ratio at 25 μM (%)” value is given as above 99%.

For the molecule `Cc1cc(C)cc(CN2C(=O)SC(=Cc3ccc(O)c(C(=O)Nc4ccc(O)c(O)c4)c3)C2=O)c1` [compound 394], the “Inhibitory Ratio at 25 μM (%)” value was above 99%.

Take `COc1ccc(C=C2SC(=O)N(Cc3ccc(Cl)c(Cl)c3)C2=O)cc1F` [compound 331, 5-(3-fluoro-4-methoxybenzylidene)-3-(3,4-dichlorobenzyl)-thiazolidine-2,4-dione]: the “Inhibitory Ratio at 25 μM (%)” value is 35%.

For the molecule `O=C1C(=Cc2ccc(O)c(O)c2)SC(=S)N1Cc1ccc(C=Cc2ccccc2)cc1` [compound 306, 5-(3,4-Dihydroxybenzylidene)-3-(4-styrylbenzyl)rhodanine], the “Inhibitory Ratio at 25 μM (%)” value was above 99%.

Consider `COC(=O)c1ccc(NC(=O)c2cc(C=C3SC(=O)N(Cc4ccc(Cl)c(Cl)c4)C3=O)ccc2O)cc1` [compound 416, 5-{4-hydroxy-3-[4-(methoxycarbonyl)phenylcarbamoyl]benzylidene}-3-(3,4-dichlorobenzyl)thiazolidine-2,4-dione], for which the “Inhibitory Ratio at 25 μM (%)” value was found to be 73%.

With `O=C(Nc1cc(C=C2SC(=O)N(Cc3ccc(Cl)c(Cl)c3)C2=O)ccc1O)c1ccc(O)cc1` [compound 382], the “Inhibitory Ratio at 25 μM (%)” value is listed as 97%.

For the molecule `O=C1SC(=Cc2cc(O)c3c(c2)OCO3)C(=O)N1Cc1ccc(Cl)c(Cl)c1` [compound 324], the “Inhibitory Ratio at 25 μM (%)” value was determined as 65%.

For `COc1ccc(NC(=O)c2cc(C=C3SC(=O)N(Cc4ccc(-c5ccccc5)cc4)C3=O)ccc2O)cc1OC` [compound 371, 5-[4-Hydroxy-3-(3,4-dimethoxyphenylcarbamoyl)benzylidene]-3-(4-phenylbenzyl)thiazolidine-2,4-dione], the “Inhibitory Ratio at 25 μM (%)” value is listed as above 99%.

Consider `O=C(Nc1cccc([N+](=O)[O-])c1)c1cc(C=C2SC(=O)N(Cc3ccc(Cl)c(Cl)c3)C2=O)ccc1O` [compound 424], for which the “Inhibitory Ratio at 25 μM (%)” value was 87%.

`COc1ccc(-c2ccccc2)cc1NC(=O)c1cc(C=C2SC(=O)N(Cc3ccc(Cl)c(Cl)c3)C2=O)ccc1O` [compound 455]: the “Inhibitory Ratio at 25 μM (%)” value is recorded as above 99%.

Staying with this assay, now noted: test compound 25 μM; Test Method A.
Consider `O=C1SC(=Cc2ccc(O)c(O)c2)C(=O)N1Cc1cccc(C(F)(F)F)c1` [compound 42], for which the “Inhibitory Ratio at 25 μM (%)” value is given as above 99%.

For the molecule `CC(C)C1=NN(c2cc(C(F)(F)F)cc(C(F)(F)F)c2)C(=O)C1=Cc1ccc(O)c(O)c1` [compound 118, 4-(3,4-Dihydroxybenzylidene)-1-[3,5-bis(trifluoromethyl)phenyl]-3-isopropyl-2-pyrazolin-5-one], the “Inhibitory Ratio at 25 μM (%)” value is given as above 99%.

In the case of `COC(=O)c1cccc(N2N=C(C(C)C)C(=Cc3ccc(Cl)c(Cl)c3)C2=O)c1` [compound 210], the “Inhibitory Ratio at 25 μM (%)” value was found to be 49%.

Take `O=C1SC(=Cc2cccc(O)c2O)C(=O)N1CCc1ccc(Cl)cc1` [compound 90, 5-(2,3-Dihydroxybenzylidene)-3-[2-(4-chlorophenyl)ethyl]thiazolidine-2,4-dione]: the “Inhibitory Ratio at 25 μM (%)” value is reported as above 99%.

On to `CC1=NN(c2ccc(S(N)(=O)=O)cc2)C(=O)C1=Cc1ccc(-c2cccc(Cl)c2)o1` [compound 186], for which the “Inhibitory Ratio at 25 μM (%)” value is given as 30%.

`CCOC(=O)C1=NN(c2cccc(C(=O)OCC)c2)C(=O)C1=Cc1ccc2c(c1)OCO2` [compound 196]: the “Inhibitory Ratio at 25 μM (%)” value amounted to 54%.

For `O=C1SC(=Cc2ccc(O)cc2O)C(=O)N1Cc1ccc(Cl)c(Cl)c1` [compound 45], the “Inhibitory Ratio at 25 μM (%)” value is given as above 99%.

With `O=C1SC(=Cc2ccc(O)c(O)c2)C(=O)N1Cc1ccc(Oc2ccccc2)cc1` [compound 60, 5-(3,4-Dihydroxybenzylidene)-3-(4-phenoxybenzyl)thiazolidine-2,4-dione], the “Inhibitory Ratio at 25 μM (%)” value was above 99%.

`COC(=O)c1cccc(-c2ccc(C=C3C(=O)N(c4cccc(C(=O)O)c4)N=C3C)o2)c1` [compound 189]: the “Inhibitory Ratio at 25 μM (%)” value was 21%.

Take `O=C(O)c1cccc(N2N=C(c3ccccc3)C(=Cc3ccc(-c4cc(Cl)cc(Cl)c4)o3)C2=O)c1` [compound 216]: the “Inhibitory Ratio at 25 μM (%)” value is recorded as 94%.

Take `Cc1ccc(N2N=C(C(C)C)C(=Cc3ccc(O)c(O)c3)C2=O)cc1Cl` [compound 119, 4-(3,4-Dihydroxybenzylidene)-1-(3-chloro-4-methylphenyl)-3-isopropyl-2-pyrazolin-5-one]: the “Inhibitory Ratio at 25 μM (%)” value was above 99%.

Turning to `O=C1SC(=Cc2cccc(O)c2O)C(=O)N1Cc1cc(Cl)cc(Cl)c1` [compound 11, 5-(2,3-Dihydroxybenzylidene)-3-(3,5-dichlorobenzyl)thiazolidine-2,4-dione], the “Inhibitory Ratio at 25 μM (%)” value is above 99%.

Take `CCOc1cc(C=C2C(=O)N(c3cccc(C(F)(F)F)c3)N=C2C)ccc1OCC(=O)O` [compound 159]: the “Inhibitory Ratio at 25 μM (%)” value worked out at 32%.

Consider `Nc1ccc(C=C2SC(=O)N(Cc3ccc(Cl)c(Cl)c3)C2=O)cc1O` [compound 88], for which the “Inhibitory Ratio at 25 μM (%)” value came to 65%.

For `O=C1SC(=Cc2cccc(O)c2O)C(=O)N1Cc1cccc([N+](=O)[O-])c1` [compound 49], the “Inhibitory Ratio at 25 μM (%)” value came out at 93%.
